These results are taken from PubChem BioAssay (NCI).

Structures are written as SMILES. Values joined by “and” are separate entries in the source; they are usually repeats but may differ in a detail not shown here. Equal values may be shown once.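 Cultured in 96-well plates, cells were exposed to test compound for 48 hours across five concentrations. GI50 marks 50% less growth. Definition used: TGI = concentration required for complete inhibition of growth.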

Test systems include BT-549 breast; COLO 205 colon; NCI-H226 lung; NCI/ADR-RES ovarian; PC-3 prostate; SW-620 colon; SNB-78 CNS; DMS 273 small cell lung; KM20L2 colon.
Holding throughout (assay): NCI tumour cell line growth inhibition, 48 h

On to `C=C[C@]1(C)C=C2C(=O)[C@@]3(O)OC(=O)[C@@]4(CCCC(C)(C)[C@H]34)[C@@]2(O)CC1`, for which the GI50 in the assay on BT-549 breast is 1.07 µM; with COLO 205 colon, 1.61 µM; in the assay on NCI-H226 lung it was 5.14 µM; in the assay on NCI/ADR-RES ovarian, 2.89 µM; in the assay on PC-3 prostate it was 1.45 µM; with SW-620 colon, 0.955 µM. Also, the TGI with BT-549 breast was 2.48 µM; in the assay with COLO 205 colon it was 2.98 µM; in the assay on NCI-H226 lung, 26.1 µM; in the assay on NCI/ADR-RES ovarian, greater than 100 µM; in the assay on PC-3 prostate it was 5.08 µM; in the assay with SW-620 colon, 3.36 µM.
With `COc1cc(C(=O)n2nc(N3CCN(C)CC3)c3cc(N)ccc32)cc(OC)c1OC`, the GI50 in the assay with BT-549 breast was 4.32 µM; with COLO 205 colon it was 15.5 µM; in the assay on NCI-H226 lung, 5.61 µM; in the assay on NCI/ADR-RES ovarian it was 4.2 µM; in the assay with PC-3 prostate it was 17.7 µM; in the assay on SW-620 colon, 5.28 µM. The TGI in the assay with BT-549 breast is greater than 100 µM; with COLO 205 colon it was 37.3 µM; with NCI-H226 lung, 34.5 µM; in the assay on NCI/ADR-RES ovarian, greater than 100 µM; with PC-3 prostate, greater than 100 µM; in the assay with SW-620 colon, greater than 100 µM.
Regarding `ON(CCc1ccccn1)Cc1ccccc1`, the TGI in the assay on BT-549 breast, in the assay on COLO 205 colon, in the assay on NCI-H226 lung, in the assay on NCI/ADR-RES ovarian, with PC-3 prostate and with SW-620 colon was greater than 100 µM throughout.
Turning to `Cc1cc(C)nc(SC2=C(Nc3cccc(Cl)c3)C(=O)N(Cc3ccccc3)C2=O)n1`, the GI50 in the assay on BT-549 breast was greater than 170 µM; with COLO 205 colon, greater than 170 µM; with NCI-H226 lung, 0.729 µM; in the assay with NCI/ADR-RES ovarian it was greater than 170 µM; in the assay on PC-3 prostate, greater than 170 µM; with SW-620 colon it was greater than 170 µM. Moreover, the TGI is greater than 170 µM in the assay with BT-549 breast; greater than 170 µM in the assay on COLO 205 colon; 9.43 µM in the assay on NCI-H226 lung; greater than 170 µM in the assay on NCI/ADR-RES ovarian; greater than 170 µM with PC-3 prostate; greater than 170 µM with SW-620 colon.
Take `[N-]=[N+]=CC(=O)OCC(N)C(=O)O` (stereo unspecified): the GI50 in the assay on BT-549 breast was 16.7 µM; in the assay on COLO 205 colon it was 0.778 µM; in the assay on NCI-H226 lung it was 3.53 µM; in the assay on NCI/ADR-RES ovarian it was 3.2 µM; in the assay with PC-3 prostate, 2.42 µM; with SW-620 colon, 0.649 µM. Moreover, the TGI in the assay with BT-549 breast, in the assay with COLO 205 colon, with NCI-H226 lung, in the assay on NCI/ADR-RES ovarian, in the assay on PC-3 prostate and in the assay with SW-620 colon was greater than 100 µM throughout.
On to `CCNc1nc(N2CC(=O)Nc3cc(OC)ccc32)c2ccccc2n1`, for which the GI50 is 0.00237 µM with BT-549 breast; 0.00035 µM in the assay with COLO 205 colon; 0.000399 µM with NCI/ADR-RES ovarian; 0.00058 µM with PC-3 prostate; 0.000378 µM with SW-620 colon. In addition, the TGI was 3.91 µM with BT-549 breast; 0.00207 µM with COLO 205 colon; greater than 100 µM in the assay with NCI-H226 lung; 0.015 µM in the assay with NCI/ADR-RES ovarian; greater than 100 µM in the assay with PC-3 prostate; greater than 100 µM with SW-620 colon.
With `Cc1ccc(S(=O)(=O)N/N=C(\C(=O)Nc2cccc([N+](=O)[O-])c2)c2nc3ccc([N+](=O)[O-])cc3[nH]c2=O)cc1`, the TGI in the assay with COLO 205 colon, with NCI-H226 lung, with SNB-78 CNS and with SW-620 colon was greater than 100 µM each time.
On to `O=C(CC(=O)C(F)(F)F)c1csc2ccccc12`, for which the TGI in the assay with COLO 205 colon, in the assay on DMS 273 small cell lung, with KM20L2 colon, with SNB-78 CNS and with SW-620 colon was greater than 100 µM each time.
`Cc1ccc(S(=O)(=O)n2cc(C(=O)C(=O)Nc3ccncc3)c3ccccc32)cc1`: the GI50 with BT-549 breast was 3.62 µM; with COLO 205 colon, 18.7 µM; in the assay on NCI-H226 lung, 8.6 µM; in the assay on NCI/ADR-RES ovarian, 0.406 µM; in the assay on PC-3 prostate it was 1.6 µM; with SW-620 colon, 1.23 µM. Besides, the TGI was greater than 100 µM in the assay with BT-549 breast; 48.1 µM in the assay with COLO 205 colon; greater than 100 µM with NCI-H226 lung; greater than 34.1 µM in the assay with NCI/ADR-RES ovarian; greater than 100 µM in the assay on PC-3 prostate; greater than 100 µM in the assay on SW-620 colon.
On to `CO[C@H](C(=O)N[C@@H](CCCCNC(=O)OCc1ccccc1)C(=O)OC(C)(C)C)[C@@H]1Cc2cc3cc(OC4CC(OC5CC(O)C(O)C(C)O5)C(O)C(C)O4)c(C)c(O)c3c(O)c2C(=O)[C@H]1OC1CC(OC2CC(OC3CC(C)(O)C(O)C(C)O3)C(O)C(C)O2)C(O)C(C)O1` (stereo partly specified), for which the GI50 with BT-549 breast was 0.518 µM; with COLO 205 colon, 0.689 µM; with NCI-H226 lung, 0.673 µM; in the assay on PC-3 prostate, 0.7 µM; in the assay with SW-620 colon, 0.441 µM. The TGI in the assay with BT-549 breast is 1.81 µM; in the assay with COLO 205 colon it was 3.63 µM; with NCI-H226 lung, 2.14 µM; in the assay with NCI/ADR-RES ovarian, greater than 10 µM; in the assay on PC-3 prostate it was 8.67 µM; with SW-620 colon, 3.34 µM.
As for `Cc1ccc2sc3c(NCCCNCCO)nc4ccccc4c3c(=O)c2c1`, the GI50 in the assay on BT-549 breast was 1.54 µM; with COLO 205 colon, 1.55 µM; in the assay with NCI-H226 lung it was 1.78 µM; in the assay with NCI/ADR-RES ovarian, 1.78 µM; with PC-3 prostate, 1.38 µM; with SW-620 colon it was 1.62 µM. Besides, the TGI in the assay on BT-549 breast amounted to 3.02 µM; in the assay on COLO 205 colon, 3.19 µM; with NCI-H226 lung, 3.68 µM; with NCI/ADR-RES ovarian, 3.51 µM; in the assay on PC-3 prostate, 2.87 µM; in the assay with SW-620 colon, 3.13 µM.
On to `COC(=O)[C@@H](C)C[C@H](Cc1ccccc1)NC(=O)c1csc([C@@H](C[C@H](C(C)C)N(C)C(=O)[C@@H](NC(=O)[C@H]2CCCCN2C)C(C)C)OC(C)=O)n1`, for which the GI50 was 0.000284 µM and < 0.0025 µM in the assay with BT-549 breast; less than 0.0025 µM in the assay with COLO 205 colon; 0.0025 µM in the assay on NCI-H226 lung; 0.00383 µM and 0.0025 µM in the assay on NCI/ADR-RES ovarian. For the same molecule, the TGI was 0.0183 µM and < 0.0025 µM in the assay with BT-549 breast; less than 0.0025 µM in the assay on COLO 205 colon; greater than 25 µM in the assay with NCI-H226 lung; greater than 25 µM with NCI/ADR-RES ovarian; greater than 25 µM in the assay with PC-3 prostate; greater than 25 µM with SW-620 colon.
With `COC(=O)Nc1nc2ccc(Oc3ccc(NC(=O)Nc4cccc(Cl)c4)cc3)cc2[nH]1`, the GI50 is 5.87 µM in the assay on BT-549 breast; 0.916 µM with COLO 205 colon; 2.46 µM with NCI-H226 lung; 5.17 µM with NCI/ADR-RES ovarian; 1 µM with PC-3 prostate; 0.975 µM in the assay with SW-620 colon. For the same molecule, the TGI in the assay with BT-549 breast is greater than 21.8 µM; in the assay with COLO 205 colon, 3.07 µM; with NCI-H226 lung, 24.3 µM; in the assay on NCI/ADR-RES ovarian, greater than 25 µM; with PC-3 prostate, 7.1 µM; with SW-620 colon, 9.85 µM.
